Values belong to the compound of their own block, whether it stands above or below them. Calls of active or inactive are those of the source. The rule behind the calls is not given here.
How the values were obtained:
[1] = test system: MDCK; assay: Inhibition of cisplatin-induced apoptosis in MDCK cells assessed as reduction in caspase 3/7 activity at 30 uM pre-incubated for 1 hr before cisplatin challenge for 16 hrs by luminescence based assay relative to control; type: functional; details: Canis lupus familiaris
[2] = test system: MDCK; assay: Inhibition of cisplatin-induced apoptosis in MDCK cells assessed as reduction in caspase 3/7 activity at 100 uM pre-incubated for 1 hr before cisplatin challenge for 16 hrs by luminescence based assay; type: functional, cell-based; details: Canis lupus familiaris
[3] = test system: MDCK; assay: Inhibition of cisplatin-induced apoptosis in MDCK cells assessed as reduction in caspase 3/7 activity at 100 uM pre-incubated for 1 hr before cisplatin challenge for 16 hrs by luminescence based assay relative to control; type: functional; details: Canis lupus familiaris
[4] = test system: MDCK; assay: Inhibition of cisplatin-induced apoptosis in MDCK cells assessed as reduction in caspase 3/7 activity at 30 to 125 uM pre-incubated for 1 hr before cisplatin challenge for 16 hrs by luminescence based assay; type: functional, cell-based; details: Canis lupus familiaris
[5] = Cytotoxicity in mouse AML-12 cells assessed as reduction inc ell viability at 10 nM to 300 uM incubated for 4 hrs by LDH release assay; type: cell-based
[6] = test system: HepG2; assay: Cytotoxicity against human HepG2 cells assessed as reduction in cell viability at 0.01 to 300 uM incubated for 4 hrs by LDH release assay; type: cell-based; details: hepg2, 4 h
[7] = target: 2-amino-3-carboxymuconate-6-semialdehyde decarboxylase (Mus musculus) (UniProt Q8R519); assay: Inhibition of ACMSD in mouse AML12 cells assessed as induction of SOD2 activity incubated for 24 hrs; type: cell-based
Sequence of 2-amino-3-carboxymuconate-6-semialdehyde decarboxylase (Mus musculus) (Q8R519 whole entry): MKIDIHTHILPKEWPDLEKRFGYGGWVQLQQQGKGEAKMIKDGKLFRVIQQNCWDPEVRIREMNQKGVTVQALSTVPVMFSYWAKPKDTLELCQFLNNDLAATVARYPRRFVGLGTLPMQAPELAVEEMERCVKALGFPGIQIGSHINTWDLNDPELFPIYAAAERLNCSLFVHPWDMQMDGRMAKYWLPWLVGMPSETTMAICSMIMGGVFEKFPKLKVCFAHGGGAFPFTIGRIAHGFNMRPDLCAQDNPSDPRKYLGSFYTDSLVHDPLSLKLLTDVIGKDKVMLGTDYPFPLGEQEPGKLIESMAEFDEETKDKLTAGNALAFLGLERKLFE

[8] = target: 2-amino-3-carboxymuconate-6-semialdehyde decarboxylase (Homo sapiens) (UniProt Q8TDX5); assay: Inhibition of ACMSD in human primary hepatocytes assessed as increase in NAD\"\" concentration following compound replacement every 24 hrs by LC-MS/MS analysis relative to control; type: cell-based
Sequence of 2-amino-3-carboxymuconate-6-semialdehyde decarboxylase (Homo sapiens) (Q8TDX5 whole entry, looked up): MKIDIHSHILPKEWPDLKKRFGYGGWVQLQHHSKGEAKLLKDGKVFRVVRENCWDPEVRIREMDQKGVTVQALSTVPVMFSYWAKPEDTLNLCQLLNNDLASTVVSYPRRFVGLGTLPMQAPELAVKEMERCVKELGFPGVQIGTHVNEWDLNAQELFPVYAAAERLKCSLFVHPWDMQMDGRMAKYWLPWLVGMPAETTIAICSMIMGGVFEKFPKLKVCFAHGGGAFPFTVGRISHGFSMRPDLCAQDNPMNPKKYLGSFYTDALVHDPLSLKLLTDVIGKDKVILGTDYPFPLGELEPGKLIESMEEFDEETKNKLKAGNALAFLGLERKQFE

[9] = target: 2-amino-3-carboxymuconate-6-semialdehyde decarboxylase (Mus musculus) (UniProt Q8R519); assay: Inhibition of ACMSD in mouse AML12 cells assessed as reduction in FoxO1 phosphorylation at Ser256 residue incubated for 24 hrs; type: cell-based
[10] = target: 2-amino-3-carboxymuconate-6-semialdehyde decarboxylase (Mus musculus) (UniProt Q8R519); assay: Inhibition of ACMSD in C57BL/6J mouse primary hepatocytes assessed as increase in Sod1 mRNA expression incubated for 24 hrs by RT-qPCR analysis; type: cell-based
[11] = target: 2-amino-3-carboxymuconate-6-semialdehyde decarboxylase (Mus musculus) (UniProt Q8R519); assay: Inhibition of ACMSD in C57BL/6J mouse primary hepatocytes assessed as increase in Pgc1a mRNA expression incubated for 24 hrs by RT-qPCR analysis; type: cell-based
[12] = target: 2-amino-3-carboxymuconate-6-semialdehyde decarboxylase (Mus musculus) (UniProt Q8R519); assay: Inhibition of ACMSD in C57BL/6J mouse primary hepatocytes assessed as induction of SOD2 activity incubated for 24 hrs; type: cell-based
[13] = target: 2-amino-3-carboxymuconate-6-semialdehyde decarboxylase (Mus musculus) (UniProt Q8R519); assay: Inhibition of ACMSD in C57BL/6J mouse primary hepatocytes assessed as increase in Sod2 mRNA expression incubated for 24 hrs by RT-qPCR analysis; type: cell-based
[14] = target: 2-amino-3-carboxymuconate-6-semialdehyde decarboxylase (Homo sapiens) (UniProt Q8TDX5); assay: Inhibition of ACMSD in human primary hepatocytes assessed as increase in NAD concentration at 0.5 uM following compound replacement every 24 hrs by LC-MS/MS analysis; type: cell-based
[15] = target: 2-amino-3-carboxymuconate-6-semialdehyde decarboxylase (Mus musculus) (UniProt Q8R519); assay: Inhibition of ACMSD in mouse AML12 cells assessed as increase in Sod2 mRNA expression incubated for 24 hrs by RT-qPCR analysis; type: cell-based
[16] = target: 2-amino-3-carboxymuconate-6-semialdehyde decarboxylase (Homo sapiens) (UniProt Q8TDX5); assay: Inhibition of ACMSD in human primary hepatocytes assessed as increase in NAD concentration at 5 uM following compound replacement every 24 hrs by LC-MS/MS analysis; type: cell-based
[17] = target: 2-amino-3-carboxymuconate-6-semialdehyde decarboxylase (Homo sapiens) (UniProt Q8TDX5); assay: Inhibition of ACMSD in human primary hepatocytes assessed as increase in NAD concentration at 250 uM following compound replacement every 24 hrs by LC-MS/MS analysis; type: cell-based

Structure (SMILES): N#Cc1c(-c2cccs2)nc(SCc2cccc(CC(=O)O)c2)[nH]c1=O
inhibition at 30 µM [1]: 29% | inhibition [2]: Active | inhibition at 100 µM [3]: 75% | inhibition [4]: Active

Structure (SMILES): O=C(O)c1cccc(CSc2nc(-c3ccccc3)c(Br)c(=O)[nH]2)c1
Activity [5]: Non-Toxic | Activity [6]: Non-Toxic

inhibition [7]: Dose-dependent effect | inhibition [8]: Dose-dependent effect | inhibition [9]: Dose-dependent effect | inhibition [10]: inactive | inhibition [11]: Dose-dependent effect | inhibition [12]: Dose-dependent effect | inhibition [13]: Dose-dependent effect
Structure (SMILES): N#Cc1c(-c2cccs2)nc(SCc2cccc(-c3nnn[nH]3)c2)[nH]c1=O

inhibition [7]: Dose-dependent effect | inhibition [9]: Dose-dependent effect | inhibition [14]: Active | inhibition [15]: Dose-dependent effect | inhibition [12]: Dose-dependent effect
Structure (SMILES): N#Cc1c(-c2ccccc2)nc(SCc2cccc(C(=O)O)c2)[nH]c1=O
Activity [5]: Non-Toxic | Activity [6]: Non-Toxic

inhibition [16]: Active | inhibition [14]: Active
Structure (SMILES): N#Cc1c(-c2cccs2)nc(SCc2cccc(C(=O)O)c2)[nH]c1=O
Activity [5]: Non-Toxic | Activity [6]: Non-Toxic

Structure (SMILES): N#Cc1c(-c2cccs2)nc(SCc2cccc(-c3noc(=O)[nH]3)c2)[nH]c1=O
Activity [5]: Non-Toxic | Activity [6]: Non-Toxic

Structure (SMILES): N#Cc1c(-c2nccs2)nc(SCc2cccc(C(=O)O)c2)[nH]c1=O
Activity [5]: Non-Toxic | Activity [6]: Non-Toxic

Structure (SMILES): N#Cc1c(-c2ccc(Cl)cc2)nc(SCc2ccc(C(=O)O)cc2)[nH]c1=O
Activity [5]: Non-Toxic | Activity [6]: Non-Toxic

Structure (SMILES): CCCCC(CC)COC(=O)c1ccccc1C(=O)O (stereo not drawn)
inhibition [17]: Active

Structure (SMILES): N#Cc1c(-c2cccs2)nc(SCc2cccc(-c3nn[nH]n3)c2)[nH]c1=O
Activity [5]: Non-Toxic | Activity [6]: Non-Toxic
